For the test, the target named is T1, Methylated-DNA--protein-cysteine methyltransferase (Homo sapiens) (UniProt P16455).
T1 sequence (whole entry): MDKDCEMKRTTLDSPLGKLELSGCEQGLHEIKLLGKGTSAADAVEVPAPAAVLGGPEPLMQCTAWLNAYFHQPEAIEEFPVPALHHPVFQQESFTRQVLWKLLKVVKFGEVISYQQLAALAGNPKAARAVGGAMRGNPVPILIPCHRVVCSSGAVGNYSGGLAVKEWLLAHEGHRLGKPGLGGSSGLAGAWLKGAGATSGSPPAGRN
Briefly: Binding to human MGMT. The conditions noted are these: tested as the 131I-labelled form.

The compound `Nc1nc(OCc2cccc(I)c2)c2[nH]cnc2n1` gave an Activity of 97%.

As for `Nc1nc(OCc2ccc(I)s2)c2[nH]cnc2n1`, the Activity stood at 80%.

These data come from ChEMBL document CHEMBL1148571, “Synthesis of 131I-labeled glucose-conjugated inhibitors of O6-methylguanine-DNA methyltransferase (MGMT) and comparison with nonconjugated inhibitors as potential tools for in vivo MGMT imaging” (J Med Chem, 2006).
